According to patent US20260070945A1, “MACROCYCLIC IMMUNOMODULATORS” (Bristol-Myers Squibb Company, priority 2022, published 2026):
pIC50: −log10 of the molar value. Where a SMILES comes first, the peptide text is derived from it. Bridges are numbered along the chain shown (N, C = ends). [ ]: non-standard residue; d: D form. The star is where a group is joined. ξ: configuration not given here. Phe(3-CF3) = N[C@@H](Cc1cccc(C(F)(F)F)c1)C(=O)O; Phe(4-COOH) = N[C@@H](Cc1ccc(C(=O)O)cc1)C(=O)O; Bip = N[C@@H](Cc1ccc(-c2ccccc2)cc1)C(=O)O; Phe(3-Me) = Cc1cccc(C[C@H](N)C(=O)O)c1; NH(CH2)12COOH = O=C(O)CCCCCCCCCCCCN*; Val(3-OH) = CC(C)(O)[C@H](N)C(=O)O; 4Pal = N[C@@H](Cc1ccncc1)C(=O)O; Cha = N[C@@H](CC1CCCCC1)C(=O)O; Cit = NC(=O)NCCC[C@H](N)C(=O)O; Ile(3ξ) = CCC(C)[C@H](N)C(=O)O; Thr(3ξ) = CC(O)[C@H](N)C(=O)O; 12Ado = NCCCCCCCCCCCC(=O)O; Carboxymethyl = O=C(O)C*; NMeA = CN[C@@H](C)C(=O)O; Aun = NCCCCCCCCCCC(=O)O; Dab = NCC[C@H](N)C(=O)O; Dap = NC[C@H](N)C(=O)O; AEEA = NCCOCCOCC(=O)O; Sar = CNCC(=O)O

These compounds were tested against T1, PD-1/PD-L1 interaction (PE-labeled human PD-L1-Ig binding to Jurkat cell line over-expressing human PD-1) (Homo sapiens, UniProt Q15116) (assay: Jurkat-PD-1 Cell Binding High-Content Screening Assay (CBA)). Settings: Jurkat-hPD-1 cells, PE-labeled PD-L1-Ig 20 nM final; read-out: Jurkat HPD1 PDL1 IC50.
T1 construct: expressed in transfected cells; host or cells: Jurkat
T1 sequence (Q15116 25-288): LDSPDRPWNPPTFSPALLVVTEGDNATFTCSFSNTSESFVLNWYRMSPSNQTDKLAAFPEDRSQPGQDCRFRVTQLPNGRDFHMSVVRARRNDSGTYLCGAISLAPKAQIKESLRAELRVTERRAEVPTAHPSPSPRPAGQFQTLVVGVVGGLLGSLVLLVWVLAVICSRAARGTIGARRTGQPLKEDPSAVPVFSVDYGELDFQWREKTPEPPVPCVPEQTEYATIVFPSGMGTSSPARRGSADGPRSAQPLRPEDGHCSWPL
Outline: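 Jurkat-hPD-1 cells (8×10^3/well) in DMEM with 10% fetal calf serum were preincubated with compound for 2 h at 37 °C. PE-labeled PD-L1-Ig was then added at 20 nM final for 1 h. Cells were fixed in paraformaldehyde with Hoechst 33342, washed and imaged by high-content imaging.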

| Compound | pIC50 |
| --- | --- |
| Cc1cccc(C[C@@H]2NC(=O)[C@H](CC(=O)O)NC(=O)[C@H](Cc3ccc(OCC(=O)O)cc3)NC(=O)[C@H](C(C)O)NC(=O)CSC[C@@H](C(=O)N(C)CC(=O)NCCCCCCCCCCC(=O)O)NC(=O)[C@H](CCCNC(N)=O)NC(=O)[C@H](C(C)C)NC(=O)[C@H](CC3CCCCC3)NC(=O)[C@H](CCN)NC(=O)[C@@H](CC(C)C)NC(=O)[C@H](C)N(C)C(=O)[C@H](C(C)C)NC(=O)[C@H](Cc3ccc(-c4ccccc4)cc3)NC(=O)[C@H](C(C)C)NC2=O)c1 (stereo partly drawn) [Example 2259] ({CH2CO}-[Thr(3ξ)]Y(Carboxymethyl)D[Phe(3-Me)]V[Bip]V[NMeA][dL][Dab][Cha]V[Cit]C[Sar][Aun]-OH; thioether N-14) | 7.94 |
| CC(C)C[C@@H]1NC(=O)[C@H](Cc2c[nH]c3ccccc23)NC(=O)[C@H](CC(=O)O)NC(=O)[C@H](Cc2ccncc2)NC(=O)[C@H](Cc2ccc(OCC(=O)O)cc2)NC(=O)CSC[C@@H](C(=O)NCC(=O)NCCOCCOCC(=O)N[C@@H](CCCNC(N)=O)C(=O)NCCCCCCCCCCC(=O)O)NC(=O)[C@H](CCCNC(N)=O)NC(=O)[C@H](C(C)C)NC(=O)[C@H](CC2CCCCC2)NC(=O)[C@H](CCN)NC(=O)[C@@H](CC(C)C)NC(=O)[C@H](C)N(C)C(=O)[C@H](C(C)C)NC(=O)[C@H](Cc2ccc(-c3ccccc3)cc2)NC1=O [Example 2173] ({CH2CO}-Y(Carboxymethyl)[4Pal]DWL[Bip]V[NMeA][dL][Dab][Cha]V[Cit]CG[AEEA][Cit][Aun]-OH; thioether N-14) | 7.81 |
| CCC(C)[C@@H]1NC(=O)[C@H](Cc2ccc(-c3ccccc3)cc2)NC(=O)[C@H](CC(C)C)NC(=O)[C@H](Cc2c[nH]c3ccccc23)NC(=O)[C@H](CC(=O)O)NC(=O)[C@H](Cc2ccc(O)cc2)NC(=O)[C@H](Cc2ccccc2)NC(=O)CSC[C@@H](C(=O)N[C@@H](CN)C(=O)NCCOCCOCC(=O)NCCCCCCCCCCC(=O)O)NC(=O)[C@H](CO)NC(=O)[C@H](C(C)C)NC(=O)[C@H](CC2CCCCC2)NC(=O)[C@H](CCN)NC(=O)[C@@H](CC(C)C)NC(=O)[C@H](C)N(C)C1=O (stereo partly drawn) [Example 2055] ({CH2CO}-FYDWL[Bip][Ile(3ξ)][NMeA][dL][Dab][Cha]VSC[Dap][AEEA][Aun]-OH; thioether N-14) | 7.00 |
| CC(C)C[C@@H]1NC(=O)[C@H](Cc2c[nH]c3ccccc23)NC(=O)[C@H](CC(=O)O)NC(=O)[C@H](Cc2ccc(C(=O)O)cc2)NC(=O)[C@H](Cc2ccc(OCC(=O)O)cc2)NC(=O)CSC[C@@H](C(=O)N[C@@H](CCN)C(=O)NCCCCCCCCCCC(=O)O)NC(=O)[C@H](CCC(N)=O)NC(=O)[C@H](C(C)C)NC(=O)[C@H](CC2CCCCC2)NC(=O)[C@H](CCN)NC(=O)[C@@H](CC(C)C)NC(=O)[C@H](C)N(C)C(=O)[C@H](C(C)C)NC(=O)[C@H](Cc2ccc(-c3ccccc3)cc2)NC1=O [Example 1337] ({CH2CO}-Y(Carboxymethyl)[Phe(4-COOH)]DWL[Bip]V[NMeA][dL][Dab][Cha]VQC[Dab][Aun]-OH; thioether N-14) | 8.00 |
| CC(C)C[C@@H]1NC(=O)[C@H](Cc2c[nH]c3ccccc23)NC(=O)[C@H](CC(=O)O)NC(=O)[C@H](Cc2ccc(O)cc2)NC(=O)[C@H](Cc2ccccc2)NC(=O)CSC[C@@H](C(=O)N[C@@H](C)C(=O)N[C@H](CCCCN)C(=O)NCCCCCCCCCCC(=O)O)NC(=O)[C@H](CO)NC(=O)[C@H](C(C)C)NC(=O)[C@H](CC(C)C)NC(=O)[C@H](CCN)NC(=O)[C@@H](CC(C)C)NC(=O)[C@H](C)N(C)C(=O)[C@H](C(C)C)NC(=O)[C@H](Cc2ccc(-c3ccccc3)cc2)NC1=O [Example 2035] ({CH2CO}-FYDWL[Bip]V[NMeA][dL][Dab]LVSCA[dK][Aun]-OH; thioether N-14) | 7.66 |
| CC(C)C[C@H]1NC(=O)[C@H](C)N(C)C(=O)[C@H](CCC(N)=O)NC(=O)[C@H](Cc2ccc(-c3ccccc3)cc2)NC(=O)[C@H](Cc2ccc(C(=O)O)cc2)NC(=O)[C@H](Cc2cccc(C(F)(F)F)c2)NC(=O)[C@H](CC(=O)O)NC(=O)[C@H](Cc2ccc(OCC(=O)O)cc2)NC(=O)[C@H](Cc2ccc(C(=O)O)cc2)NC(=O)CSC[C@@H](C(=O)N[C@@H](CCN)C(=O)NCCCCCCCCCCCCC(=O)O)NC(=O)[C@H](CO)NC(=O)[C@H](C(C)(C)O)NC(=O)[C@H](CC2CCCCC2)NC(=O)[C@H](CCN)NC1=O [Example 1144] ({CH2CO}-[Phe(4-COOH)]Y(Carboxymethyl)D[Phe(3-CF3)][Phe(4-COOH)][Bip]Q[NMeA][dL][Dab][Cha][Val(3-OH)]SC[Dab]-{NH(CH2)12COOH}; thioether N-14) | 7.85 |

Same assay, conditions: PE-labeled PD-L1-Ig 20 nM final, Jurkat-hPD-1 cells; read-out: Jurkat HPD1 PDL1 IC50

| Compound | pIC50 |
| --- | --- |
| CC(=O)NCCCC[C@@H]1NC(=O)[C@H](C(C)(C)O)NC(=O)[C@H](CC2CCCCC2)NC(=O)[C@H](CCN)NC(=O)[C@@H](CC(C)C)NC(=O)[C@H](C)N(C)C(=O)[C@H](CCC(N)=O)NC(=O)[C@H](Cc2ccc(-c3ccccc3)cc2)NC(=O)[C@H](Cc2ccc(OCC(=O)O)cc2)NC(=O)[C@H](Cc2cccc(C(F)(F)F)c2)NC(=O)[C@H](CC(=O)O)NC(=O)[C@H](Cc2ccc(OCC(=O)O)cc2)NC(=O)[C@H](CC(C)C)NC(=O)CSC[C@@H](C(=O)N[C@@H](CCN)C(=O)NCCCCCCCCCCCCC(=O)O)NC1=O [Example 2626] ({CH2CO}-LY(Carboxymethyl)D[Phe(3-CF3)]Y(Carboxymethyl)[Bip]Q[NMeA][dL][Dab][Cha][Val(3-OH)]K(Ac)C[Dab]-{NH(CH2)12COOH}; thioether N-14) | 8.05 |
| Cc1cccc(C[C@@H]2NC(=O)[C@H](CC(=O)O)NC(=O)[C@H](Cc3ccc(OCC(=O)O)cc3)NC(=O)[C@H]([C@@H](C)O)NC(=O)CSC[C@@H](C(=O)NCC(=O)NCCOCCOCC(=O)NCCCCCCCCCCCC(=O)O)NC(=O)CNC(=O)[C@H](C(C)C)NC(=O)[C@H](CC3CCCCC3)NC(=O)[C@@H](CCC(=O)O)NC(=O)[C@@H](CC(C)C)NC(=O)[C@H](C)N(C)C(=O)[C@H](Cc3ccc(OCC(=O)O)cc3)NC(=O)[C@H](Cc3ccc(-c4ccccc4)cc3)NC(=O)[C@H](Cc3ccc(OCC(=O)O)cc3)NC2=O)c1 [Example 2688] ({CH2CO}-TY(Carboxymethyl)D[Phe(3-Me)]Y(Carboxymethyl)[Bip]Y(Carboxymethyl)[NMeA][dL][dE][Cha]VGCG[AEEA][12Ado]-OH; thioether N-14) | 7.26 |
| Cc1cccc(C[C@@H]2NC(=O)[C@H](CC(=O)O)NC(=O)[C@H](Cc3ccc(OCC(=O)O)cc3)NC(=O)[C@H]([C@@H](C)O)NC(=O)CSC[C@@H](C(=O)N[C@@H](CCN)C(=O)NCCOCCOCC(=O)NCCCCCCCCCCCC(=O)O)NC(=O)[C@H](Cc3ccc(-c4ccccc4)cc3)NC(=O)[C@H](C(C)C)NC(=O)[C@H](CC3CCCCC3)NC(=O)[C@H](CCN)NC(=O)[C@@H](CC(C)C)NC(=O)[C@H](C)N(C)C(=O)[C@H](Cc3ccc(OCC(=O)O)cc3)NC(=O)[C@H](Cc3ccc(-c4ccccc4)cc3)NC(=O)[C@H](Cc3ccc(OCC(=O)O)cc3)NC2=O)c1 [Example 2674] ({CH2CO}-TY(Carboxymethyl)D[Phe(3-Me)]Y(Carboxymethyl)[Bip]Y(Carboxymethyl)[NMeA][dL][Dab][Cha]V[Bip]C[Dab][AEEA][12Ado]-OH; thioether N-14) | 7.67 |
